Measured values reported in US9023814B2, “Glycomimetic compounds as anti-infectious against pathogens lectins” (priority 2010, dated 2015).
Where two headings read alike, the source gives them in different places.

What was measured:
[1] = biological target: T1, LecA (Pseudomonas aeruginosa, UniProt Q05097); test: Inhibition of Hemagglutination (HIA), LecA-induced agglutination of rabbit erythrocytes; format: cell-based; details: LecA 6 μg/mL, 25° C.
Procedure: Inhibition of Hemagglutination (IHA) (or Hemagglutination Inhibition Assays (HIA)).
The LecA lectin agglutinates red blood cells since they are covered by glycoconjugates. The glycomimetics inhibit this agglutination.
For each compound the minimum concentration able to perform inhibition has been evaluated. The method is not very quantitative but mimics natural system.
(§1) More particularly, hemagglutination inhibition assays were performed in U-shaped 96-well microtitre plates. Rabbit erythrocytes were bought from Biomerieux and used without further washing. The erythrocytes were diluted to a 4% solution in NaCl (150 mM). Lectin solutions of 2 mg/mL were prepared in Tris/HCl 20 mM, NaCl 100 mM and CaCl2 100 μM. The hemagglutination unit (HU) was first obtained by the addition of 25 μL of the 4% erythrocyte solution to 25 μL aliquots of sequential (two-fold) lectin dilutions. The mixture was incubated at 25° C. for 60 minutes. The HU was measured as the minimum lectin concentration required to […] hemagglutination. For the following lectin-inhibition assays, lectin concentrations of four times that of the hemagglutination unit were used, i.e. a concentration of 6 μg/mL for LecA. Subsequent assays were then carried out by the addition of 12.5 μL lectin solution (at the required concentration) to 25 μL of sequential dilutions of glycoclusters, monomer molecules and controls. These solutions were then incubated at 25° C. for 2 h then 12.5 μL of 4% erythrocyte solution was added followed by an additional incubation at 25° C. for 30 minutes. The minimum inhibitory concentration for each molecule was determined by simple eye detection.
Compounds 5, 10, 14, 19, 21, 23, 25, 27, 29 and 31 were evaluated towards LecA according to Method 1.

[2] = biological target: T1, LecA; test: Enzyme-Linked Lectin Assay (ELLA), biotinylated LecA binding to polymeric galactose
Procedure: Enzyme-Linked Lectin Assay (ELLA) Experiments 96-well plates are covered with polymer presenting galactose (which is the monosaccharide that is bound by LecA). The lectin labelled with biotin is added in presence of competing glycomimetics. IC50 can be measured.
More particularly, ELLA experiments were conducted using 96-well microtitre plates (Nunc Maxisorb) coated with polymeric β-D-galactose (5 μg/mL; Lectinity Holding, Inc., Moscow) diluted in carbonate buffer, pH 9.6 (100 μL) for 1 h at 37° C. After blocking at 37° C. for 1 h with 100 μL per well of 3% (w/v) BSA in PBS, plates were incubated at 37° C. for 1 h with 100 μL of biotinylated LecA at 0.1 μg/mL in the presence of serial dilutions of inhibitors. After washing with T-PBS (PBS containing 0.05% Tween), 100 μL of streptavidinperoxidase conjugate (dilution 1:10000; Boehringer-Mannheim) was added and left for 1 h at 37° C. The color was developed using 100 μL per well of 0.05 M phosphate/citrate buffer containing O-phenylenediamine dihydrochloride (0.4 mg/mL) and urea hydrogen peroxide (0.4 mg/mL) (Sigma-Aldrich). The reaction was stopped by the addition of 50 μL of 30% H2SO4. Absorbance was read at 490 nm using a microtitre plate reader (Bio-Rad; model 680).

[3] = biological target: T1, LecA; test: biochemical; format: binding
Procedure: Surface Plasmon Resonance (SPR).
Equivalent method, but performed in miniaturized channel on a galactose-containing chips in a more sophisticated apparatus (Biacore 3000) that allows for a precise determination of the IC50.
More particularly, SPR inhibition experiments were performed on a Biacore 3000 instrument at 25° C. Measurements were carried out on 2 channels with 2 immobilised sugars: α-L-fucose (channel 1), α-D-galactose (channel 2). Immobilization of sugars was performed at 25° C. using running buffer (HBS) at 5 μL/min. Immobilization on each channel (CM5 Chip) was performed independently as follows. First, channel was activated by injecting a fresh mixture of EDC/NHS (35 μL, 420 s). Then, a solution of strepatavidin (100 μg/mL in Na acetate pH 5 buffer) was injected (50 μL, 600 s). Remaining reactive species were quenched by injecting ethanolamine (1M, 35 μL, 420 s). Finally a solution of the desired biotinylated-polyacrylamide-sugar (Lectinity, 200 μg/mL) was coated onto the surface (50 μL, 600 s) through streptavidin-biotin interaction. This procedure led to 804 RU (fucoside) and 796 RU (galactoside) of immobilized sugars on channel 1 and 2 respectively. Inhibition experiments were performed with the galactosylated channel 2 and plots represent subtracted data (channel 2-channel 1).
LecA was injected using running buffer consisting of HEPES 10 mM, NaCl 150 mM, CaCl2 10 mM, Tween P20 0.005%, pH 7.4. Inhibition studies consisted in the injection (150 μL, 10 μL/min, dissociation: 120 s) of incubated (>1 h, r.t.) mixtures of LecA (5 μM) and various concentrations of inhibitor (2-fold cascade dilutions). For each inhibition assay, LecA (5 μM) without inhibitor was injected to observe the full adhesion of the lectin onto the sugar-coated surface (0% inhibition). The CM5 chip was fully regenerated by successive injections of D-Galactose (2×30 μL, 100 mM in running buffer).
Binding was measured as RU over time after blank subtraction, and data were then evaluated using the BIAevaluation Software, version 4.1. For IC50 evaluation, the response (Req-fitted) was considered as the amount of lectin bound to the sugar surface at equilibrium in the presence of a defined concentration of inhibitor. Inhibition curves were obtained by plotting the percentage of inhibition against the inhibitor concentration (on a logarithmic scale) by using Origin 7.0 software (OriginLab Corp.) and IC50 values were extracted from sigmoidal fit of the inhibition curve.

[4] = biological target: T1, LecA; test: biochemical; format: binding; remark: listed apart in the source
Procedure: Isothermal Titration Microcalorimetry (ITC).
The method allows for a direct measurement of the affinity between the glycomimetics and the LecA lectin. The dissociation constant is measured.
More particularly, recombinant lyophilized LecA was dissolved in buffer (0.1 M TrisHCl, 6 μM CaCl2, pH 7.5) and degassed (see Supp. Info. for concentration details). Protein concentration was checked by measurement of optical density using a theoretical molar extinction coefficient of 28000. Carbohydrate ligands were dissolved directly into the same buffer, degassed, and placed in the injection syringe. ITC was performed with a VP-ITC MicroCalorimeter from MicroCal Incorporated. PA-IL was placed into the 1.4478-mL sample cell, at 25° C. Titration was performed with 10-μL injections of carbohydrate ligands every 300 s. Data were fitted with MicroCal Origin 7 software, according to standard procedures. Fitted data yielded the stoichiometry (n), the association constant (Ka) and the enthalpy of binding (ΔH).
Other thermodynamic parameters (i.e. changes in free energy, ΔG, and entropy, ΔS) were calculated from the equation: ΔG=ΔH TΔS=−RT Inka where T is the absolute temperature and R=8.314 J·mol^−1·K^−1. Two or three independent titrations were performed for each ligand tested.

[5] = test system: Rabbit erythrocytes; test: Hemolysis of red cells observed in the hemagglutination inhibition assay; format: cell-based; details: at the concentration used in the hemagglutination inhibition assay
Procedure: as §1
The values given in table 1 are inhibiting concentrations of lectin-induced rec cells agglutination. Monocovalent glycoconjugate compound 14 and tetravalent glyconjugate compounds 21 and 23 are the most efficient.

[6] = read-out: IC50 for the inhibition of labelled-LecA binding to a galactosylated polymer (ELLA), biotinylated LecA 0.1 μg/mL, multi-well plate
[7] = read-out: IC50 for the inhibition of label-free LecA binding to a galactosylated chip surface (SPR), LecA 5 μM, 25° C.
[8] = read-out: Dissociation constant for the interaction in solution with LecA (ITC), 25° C., 0.1 M TrisHCl, pH 7.5

T1 sequence (Q05097 whole entry): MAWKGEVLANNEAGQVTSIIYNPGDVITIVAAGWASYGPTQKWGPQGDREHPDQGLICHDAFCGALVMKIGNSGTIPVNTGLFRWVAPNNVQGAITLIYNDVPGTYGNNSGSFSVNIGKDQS

Compound | inhibiting concentrations of lectin-induced red cells agglutination (minimum inhibitory concentration) [1] | IC50 [2, 6] | IC50 (SPR), in words [3] | IC50 [3, 7] | Hemolysis of red cells [5] | other results
O=C(Cn1cc(CO)nn1)NCCOCCO[C@@H]1O[C@H](CO)[C@H](O)[C@H](O)[C@H]1O [Comp. 5, 1-[(1,2,3-Triazol-4-hydroxymethyl-1-yl)-acetamido]-3-oxapent-5-yl β-D-galactopyranoside] | 10 000 μM | – | – | – | – | IC50 [2]: 250 µM; IC50 [3]: 58300 nM; Kd [4]: 107 µM
O=C(CNC(=O)Cn1cc(CO)nn1)NCCO[C@@H]1O[C@H](CO)[C@H](O)[C@H](O)[C@H]1O [Comp. 10, 2-N-[(1,2,3-Triazol-4-hydroxymethyl-1-yl)-acetamido]glycinamido-ethyl β-D-galactopyranoside] | 2 500 μM | – | – | – | – | IC50 [2]: 300 µM; IC50 [3]: 60000 nM; Kd [4]: 180 µM
CC(C)(C)c1cc2c(OCc3cn(CC(=O)NCCOCCOC4OC(CO)C(O)C(O)C4O)nn3)c(c1)Cc1cc(C(C)(C)C)cc(c1OCc1cn(CC(=O)NCCOCCOC3OC(CO)C(O)C(O)C3O)nn1)Cc1cc(C(C)(C)C)cc(c1OCc1cn(CC(=O)NCCOCCOC3OC(CO)C(O)C(O)C3O)nn1)Cc1cc(C(C)(C)C)cc(c1OCc1cn(CC(=O)NCCOCCOC3OC(CO)C(O)C(O)C3O)nn1)C2 (stereo not drawn) [Comp. 19] | 500 µM | 7 µM | micromolar range | 1000 nM | – | Kd [4, 8]: 0.094 µM; Kd ([4]; read-out: dissociation constant (ITC), 25° C.): 0.094 µM
CC(C)(C)c1cc2c(OCc3cn(CC(=O)NCC(=O)NCCOC4OC(CO)C(O)C(O)C4O)nn3)c(c1)Cc1cc(C(C)(C)C)cc(c1OCc1cn(CC(=O)NCC(=O)NCCOC3OC(CO)C(O)C(O)C3O)nn1)Cc1cc(C(C)(C)C)cc(c1OCc1cn(CC(=O)NCC(=O)NCCOC3OC(CO)C(O)C(O)C3O)nn1)Cc1cc(C(C)(C)C)cc(c1OCc1cn(CC(=O)NCC(=O)NCCOC3OC(CO)C(O)C(O)C3O)nn1)C2 (stereo not drawn) [Comp. 21] | 250 µM | 21 µM | – | – | – | –
CC(C)(C)c1cc2c(OCc3cn(CC(=O)NCC(=O)NCCOC4OC(CO)C(O)C(O)C4O)nn3)c(c1)Cc1cc(C(C)(C)C)cc(c1OCc1cn(CC(=O)NCC(=O)NCCOC3OC(CO)C(O)C(O)C3O)nn1)Cc1cc(C(C)(C)C)cc(c1OCc1cn(CC(=O)NCC(=O)NCCOC3OC(CO)C(O)C(O)C3O)nn1)Cc1cc(C(C)(C)C)cc(c1OCc1cn(CC(=O)NCC(=O)NCCOC3OC(CO)C(O)C(O)C3O)nn1)C2 (stereo not drawn) [Comp. 23] | 250 µM | 7 µM | micromolar range | 1100 nM | – | Kd [4, 8]: 239 µM
CC(C)(C)c1cc2c(OCc3cn(CC(=O)NCC(=O)NCCOC4OC(CO)C(O)C(O)C4O)nn3)c(c1)Cc1cc(C(C)(C)C)cc(c1OCc1cn(CC(=O)NCC(=O)NCCOC3OC(CO)C(O)C(O)C3O)nn1)Cc1cc(C(C)(C)C)cc(c1OCc1cn(CC(=O)NCC(=O)NCCOC3OC(CO)C(O)C(O)C3O)nn1)Cc1cc(C(C)(C)C)cc(c1OCc1cn(CC(=O)NCC(=O)NCCOC3OC(CO)C(O)C(O)C3O)nn1)C2 (stereo not drawn) [Comp. 25] | 625 µM | 14 µM | micromolar range | 1200 nM | – | –
CC(C)(C)c1cc2c(OCc3cn(CC(=O)Nc4ccc(OC5OC(CO)C(O)C(O)C5O)cc4)nn3)c(c1)Cc1cc(C(C)(C)C)cc(c1OCc1cn(CC(=O)Nc3ccc(OC4OC(CO)C(O)C(O)C4O)cc3)nn1)Cc1cc(C(C)(C)C)cc(c1OCc1cn(CC(=O)Nc3ccc(OC4OC(CO)C(O)C(O)C4O)cc3)nn1)Cc1cc(C(C)(C)C)cc(c1OCc1cn(CC(=O)Nc3ccc(OC4OC(CO)C(O)C(O)C4O)cc3)nn1)C2 (stereo not drawn) [Comp. 27] | – | 0.8 µM | – | – | Hemolysis of red cells is observed | IC50 (ELLA), in words [2]: sub micromolar range
CC(C)(C)c1cc2c(OCc3cn(CC(=O)Nc4ccc(OC5OC(CO)C(O)C(O)C5O)cc4)nn3)c(c1)Cc1cc(C(C)(C)C)cc(c1OCc1cn(CC(=O)Nc3ccc(OC4OC(CO)C(O)C(O)C4O)cc3)nn1)Cc1cc(C(C)(C)C)cc(c1OCc1cn(CC(=O)Nc3ccc(OC4OC(CO)C(O)C(O)C4O)cc3)nn1)Cc1cc(C(C)(C)C)cc(c1OCc1cn(CC(=O)Nc3ccc(OC4OC(CO)C(O)C(O)C4O)cc3)nn1)C2 (stereo not drawn) [Comp. 29] | – | 0.9 µM | – | – | Hemolysis of red cells is observed | IC50 (ELLA), in words [2]: sub micromolar range
CC(C)(C)c1cc2c(OCc3cn(CC(=O)Nc4ccc(OC5OC(CO)C(O)C(O)C5O)cc4)nn3)c(c1)Cc1cc(C(C)(C)C)cc(c1OCc1cn(CC(=O)Nc3ccc(OC4OC(CO)C(O)C(O)C4O)cc3)nn1)Cc1cc(C(C)(C)C)cc(c1OCc1cn(CC(=O)Nc3ccc(OC4OC(CO)C(O)C(O)C4O)cc3)nn1)Cc1cc(C(C)(C)C)cc(c1OCc1cn(CC(=O)Nc3ccc(OC4OC(CO)C(O)C(O)C4O)cc3)nn1)C2 (stereo not drawn) [Comp. 31] | – | 5 µM | – | – | Hemolysis of red cells is observed | –
